Usually Kd stands for the equilibrium constant for the complex coming apart. The low end stands for higher affinity, the high end for lower affinity.

For this assay, the target named is T1, malolactic enzyme (MLE) (Oenococcus oeni, UniProt Q04DQ3).
T1 construct: gene OEOE_1564; full-length gene (1626 bp), His-tagged (HisTrap) from pET vector (text says pET28a and pET21a), E. coli BL21(DE3); reported dimer
T1 sequence (Q04DQ3 1-541): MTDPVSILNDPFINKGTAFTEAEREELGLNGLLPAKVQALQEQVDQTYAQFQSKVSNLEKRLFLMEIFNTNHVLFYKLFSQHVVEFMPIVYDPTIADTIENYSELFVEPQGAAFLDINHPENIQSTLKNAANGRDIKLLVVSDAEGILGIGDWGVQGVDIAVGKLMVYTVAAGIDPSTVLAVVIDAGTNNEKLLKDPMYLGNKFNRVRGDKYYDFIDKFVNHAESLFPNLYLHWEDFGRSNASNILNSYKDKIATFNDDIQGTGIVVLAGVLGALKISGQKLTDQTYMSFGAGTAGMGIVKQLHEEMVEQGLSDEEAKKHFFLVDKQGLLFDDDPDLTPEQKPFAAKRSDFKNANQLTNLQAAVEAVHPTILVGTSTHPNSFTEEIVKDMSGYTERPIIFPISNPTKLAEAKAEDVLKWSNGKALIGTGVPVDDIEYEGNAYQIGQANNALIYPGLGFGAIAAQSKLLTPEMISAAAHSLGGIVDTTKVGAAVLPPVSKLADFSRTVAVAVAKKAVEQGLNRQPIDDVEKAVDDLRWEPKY
The experiment in a line: isothermal titration calorimetry. Type of assay: binding. The source says: isothermal titration calorimetry on malolactic enzyme (MLE)
In general terms: In ITC the heat of successive injections is recorded.

For the compound `O=C(O)C[C@H](O)C(=O)O` [MAL^2−, L-malate (−2)], the affinity, expressed as Kd, was 1290 nM. `O=C(O)C[C@H](O)C(=O)O` [MAL^−, L-malate (−1)] gave a Kd of 3190 nM.

(Values after article PMC7435853, “L-Malate (−2) Protonation State is Required for Efficient Decarboxylation to L-Lactate by the Malolactic Enzyme of Oenococcus oeni” (Molecules, 2020).)
